Assay [1] concerns the target His6-TEV-PDGFRβ (557-1016) (Homo sapiens (Human), UniProt P09619). Nature of the assay: PDGFRβ HTRF Assay. Format: biochemical. The settings on record: read-out: PDGFR HTRF IC50. Put shortly:
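HTRF KinEASE-TK readout (665/620 nm ratio) of TK-biotin substrate phosphorylation by His-tagged PDGFRβ kinase domain. Enzyme and inhibitor preincubated 30 min, then ATP/substrate added for 3 h at room temperature before 60 min EDTA quench/detection.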

Assay [2] has as its target Tb-labeled inactive PDGFRβ (Homo sapiens (Human), UniProt P09619). As to the kind of experiment: PDGFRβ LanthaScreen Assay. The conditions noted are these: read-out: PDGFR Lantha IC50. The format is binding. On the technique in general: In TR-FRET formats the signal depends on donor and acceptor labels being close together.
Assay [3] has as its target PDGFRβ (Rattus norvegicus (Rat), UniProt Q05030). As to the kind of experiment: PDGFRβ Cellular Assay (PDGFRb P-Y751 HTRF in A10 cells stimulated with PDGF-BB). The format is cell-based. The gist of the method: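 Phospho-Y751 PDGFRβ was measured by HTRF in lysates of A10 rat cells. Cells received compound for 3 hours before PDGF-BB stimulation (100 ng/mL working stock).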

Each structure is given as a SMILES string. pIC50: −log10 of the molar value. Read-outs that look alike come from different tables or passages of the source.

Chain of Tb-labeled inactive PDGFRβ (P09619 33-1106): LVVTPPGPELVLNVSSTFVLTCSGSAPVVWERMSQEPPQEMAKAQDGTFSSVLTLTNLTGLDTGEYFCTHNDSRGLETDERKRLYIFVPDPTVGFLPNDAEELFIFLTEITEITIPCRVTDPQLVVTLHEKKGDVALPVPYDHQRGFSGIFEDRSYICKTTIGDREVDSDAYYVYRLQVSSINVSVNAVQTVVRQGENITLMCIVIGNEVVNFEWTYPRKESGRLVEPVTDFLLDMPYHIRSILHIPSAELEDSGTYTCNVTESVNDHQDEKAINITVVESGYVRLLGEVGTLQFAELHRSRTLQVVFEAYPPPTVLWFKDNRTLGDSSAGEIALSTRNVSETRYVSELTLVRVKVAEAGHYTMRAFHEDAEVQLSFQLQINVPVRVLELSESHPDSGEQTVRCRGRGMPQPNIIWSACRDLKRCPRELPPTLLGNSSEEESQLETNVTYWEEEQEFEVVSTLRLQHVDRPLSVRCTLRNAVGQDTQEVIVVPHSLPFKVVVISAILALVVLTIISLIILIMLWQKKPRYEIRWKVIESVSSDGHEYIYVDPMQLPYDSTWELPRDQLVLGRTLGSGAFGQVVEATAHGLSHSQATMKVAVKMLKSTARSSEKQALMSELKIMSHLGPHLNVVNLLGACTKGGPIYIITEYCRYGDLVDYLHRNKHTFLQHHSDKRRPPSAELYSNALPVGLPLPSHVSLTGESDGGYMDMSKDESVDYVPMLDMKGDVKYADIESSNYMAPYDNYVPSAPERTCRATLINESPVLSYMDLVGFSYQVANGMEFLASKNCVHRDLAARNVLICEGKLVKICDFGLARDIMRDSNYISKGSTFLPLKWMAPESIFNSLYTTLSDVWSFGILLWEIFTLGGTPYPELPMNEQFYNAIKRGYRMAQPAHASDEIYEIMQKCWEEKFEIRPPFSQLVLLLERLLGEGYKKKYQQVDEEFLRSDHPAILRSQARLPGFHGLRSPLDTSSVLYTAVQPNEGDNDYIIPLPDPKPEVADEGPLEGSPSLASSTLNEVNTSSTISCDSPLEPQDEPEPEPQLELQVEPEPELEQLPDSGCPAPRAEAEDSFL
Chain of PDGFRβ (Q05030 32-1097): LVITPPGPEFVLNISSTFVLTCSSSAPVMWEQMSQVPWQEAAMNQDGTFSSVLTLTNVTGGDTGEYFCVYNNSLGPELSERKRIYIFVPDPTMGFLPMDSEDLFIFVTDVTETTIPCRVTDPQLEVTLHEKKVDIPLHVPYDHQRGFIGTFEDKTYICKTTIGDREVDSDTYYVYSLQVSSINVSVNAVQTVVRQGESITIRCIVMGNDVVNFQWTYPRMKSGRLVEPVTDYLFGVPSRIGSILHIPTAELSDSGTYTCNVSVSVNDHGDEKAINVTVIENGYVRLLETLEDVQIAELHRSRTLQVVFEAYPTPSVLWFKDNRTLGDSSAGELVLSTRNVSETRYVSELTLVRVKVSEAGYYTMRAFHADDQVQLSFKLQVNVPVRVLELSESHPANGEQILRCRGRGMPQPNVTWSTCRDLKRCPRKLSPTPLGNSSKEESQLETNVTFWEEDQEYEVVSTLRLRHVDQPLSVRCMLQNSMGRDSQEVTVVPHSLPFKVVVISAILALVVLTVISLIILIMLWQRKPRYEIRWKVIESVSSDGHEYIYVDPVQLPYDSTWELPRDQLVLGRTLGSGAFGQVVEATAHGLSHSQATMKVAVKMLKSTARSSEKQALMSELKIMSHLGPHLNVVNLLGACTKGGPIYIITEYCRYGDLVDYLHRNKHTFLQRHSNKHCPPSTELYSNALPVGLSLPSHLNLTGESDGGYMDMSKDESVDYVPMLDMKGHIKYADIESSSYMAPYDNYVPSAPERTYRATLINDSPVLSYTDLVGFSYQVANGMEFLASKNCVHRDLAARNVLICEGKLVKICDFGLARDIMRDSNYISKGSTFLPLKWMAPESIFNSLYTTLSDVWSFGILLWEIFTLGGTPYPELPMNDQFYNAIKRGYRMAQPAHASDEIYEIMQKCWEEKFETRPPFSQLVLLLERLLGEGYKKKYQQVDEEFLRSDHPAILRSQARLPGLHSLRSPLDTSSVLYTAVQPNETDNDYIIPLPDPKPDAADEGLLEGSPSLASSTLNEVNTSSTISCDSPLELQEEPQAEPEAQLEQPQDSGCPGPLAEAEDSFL
Chain of His6-TEV-PDGFRβ (557-1016) (P09619 557-1016): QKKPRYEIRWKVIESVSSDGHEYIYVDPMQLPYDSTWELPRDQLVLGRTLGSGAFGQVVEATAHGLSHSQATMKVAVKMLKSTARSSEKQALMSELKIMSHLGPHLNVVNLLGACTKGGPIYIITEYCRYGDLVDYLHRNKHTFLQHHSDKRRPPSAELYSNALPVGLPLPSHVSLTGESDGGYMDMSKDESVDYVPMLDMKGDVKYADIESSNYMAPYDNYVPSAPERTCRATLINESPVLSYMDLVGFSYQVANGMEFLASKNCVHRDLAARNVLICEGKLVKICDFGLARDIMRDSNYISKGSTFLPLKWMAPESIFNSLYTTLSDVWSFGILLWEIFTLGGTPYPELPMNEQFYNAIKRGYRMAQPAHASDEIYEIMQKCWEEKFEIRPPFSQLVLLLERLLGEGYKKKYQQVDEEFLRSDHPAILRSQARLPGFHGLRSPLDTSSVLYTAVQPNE

As usually defined, the pIC50 is the negative decadic logarithm of the IC50, by convention in mol/L. Turning to `Cc1ncc(NC(=O)CN2C[C@@H](C)O[C@H](C)C2)cc1NC(=O)c1cnn2cc(-c3cnn(CCS(C)(=O)=O)c3)sc12` (relative stereo) [Example 432, N-(5-(2-(trans-2,6-dimethylmorpholino)acetamido)-2-methylpyridin-3-yl)-2-(1-(2-(methylsulfonyl)ethyl)-1H-pyrazol-4-yl)pyrazolo[5,1-b]thiazole-7-carboxamide], the pIC50 in assay [1] was 8.96; in assay [2], 8.04; in assay [3] (PDGFR Cellular IC50), 6.38.

As to `Cc1ncc(NC(=O)CN2C[C@@H](C)O[C@H](C)C2)cc1NC(=O)c1cnn2cc(-c3cnn(C)c3C)sc12` (relative stereo) [Example 433, 2-(1,5-Dimethyl-1H-pyrazol-4-yl)-N-(5-(2-(trans-2,6-dimethylmorpholino)acetamido)-2-methylpyridin-3-yl)pyrazolo[5,1-b]thiazole-7-carboxamide], the negative logarithm of the IC50 (pIC50) is 9.30 in assay [1], 8.40 in assay [2] and 8.29 in assay [3] (read-out: PDGFR Cellular IC50).

For the molecule `Cc1ncc(NC(=O)CN2CCCC[C@@H]2C)cc1NC(=O)c1cnn2cc(-c3cnn(CCO)c3)sc12` [Example 34, (S)-2-(1-(2-hydroxyethyl)-1H-pyrazol-4-yl)-N-(2-methyl-5-(2-(2-methyl-piperidin-1-yl)acetamido)pyridin-3-yl)pyrazolo[5,1-b]thiazole-7-carboxamide], the pIC50 is 8.77 in assay [1], 7.87 in assay [2] and 7.52 in assay [3] (PDGFR Cellular IC50).

As to `Cc1cc(C(=O)NCCN2CCCC23CCC3)sc1NC(=O)c1cnn2cc(-c3cnn(C)c3)sc12` [Example 35, N-(5-((2-(5-azaspiro[3.4]octan-5-yl)ethyl)carbamoyl)-3-methylthiophen-2-yl)-2-(1-methyl-1H-pyrazol-4-yl)pyrazolo[5,1-b]thiazole-7-carboxamide], the pIC50 in assay [1] was 8.80; in assay [2] it was 7.15; in assay [3] (read-out: PDGFR Cellular IC50), 7.47.

For `Cc1cc(C(=O)NCCN2CCCC2(C)C)sc1NC(=O)c1cnn2cc(-c3cccnc3)sc12` [Example 36, N-(5-((2-(2,2-dimethylpyrrolidin-1-yl)ethyl)carbamoyl)-3-methylthiophen-2-yl)-2-(pyridin-3-yl)pyrazolo[5,1-b]thiazole-7-carboxamide], the figures for the pIC50 in assay [1], in assay [2] and in assay [3] (read-out: PDGFR Cellular IC50) were 9.30, 7.71 and 8.05, respectively.

In the case of `Cc1cc(C(=O)NCCN2CCCC23CC3)sc1NC(=O)c1cnn2cc(-c3cnn(C)c3)sc12` [Example 37, N-(5-((2-(4-azaspiro[2.4]heptan-4-yl)ethyl)carbamoyl)-3-methylthiophen-2-yl)-2-(1-methyl-1H-pyrazol-4-yl)pyrazolo[5,1-b]thiazole-7-carboxamide], the negative-log IC50 (pIC50) in assay [1] is 7.64; in assay [2], 6.05; in assay [3] (read-out: PDGFR Cellular IC50), 7.95.

`Cc1ncc(NC(=O)NCCN2CCCC2(C)C)cc1NC(=O)c1cnn2cc(-c3cnn(C)c3)sc12` [Example 38, N-(5-(3-(2-(2,2-dimethylpyrrolidin-1-yl)ethyl)ureido)-2-methyl-pyridin-3-yl)-2-(1-methyl-1H-pyrazol-4-yl)pyrazolo[5,1-b]thiazole-7-carboxamide]: the pIC50 in assay [1] is 8.74; in assay [2] it was 7.47; in assay [3] (read-out: PDGFR Cellular IC50), 5.52.

Regarding `Cc1ncc(NC(=O)CN2CC(C)(C)C2)cc1NC(=O)c1cnn2cc(-c3cnn4c3OCCC4)sc12` [Example 39, 2-(6,7-dihydro-5H-pyrazolo[5,1-b][1,3]oxazin-3-yl)-N-(5-(2-(3,3-dimethylazetidin-1-yl)acetamido)-2-methylpyridin-3-yl)pyrazolo[5,1-b]thiazole-7-carboxamide], the pIC50 was 9.52 in assay [1], 8.72 in assay [2] and 8.70 in assay [3] (read-out: PDGFR Cellular IC50).

Turning to `COc1ccncc1-c1cn2ncc(C(=O)Nc3cc(NC(=O)CN4CC(C)(C)C4)cnc3C)c2s1` [Example 40, N-(5-(2-(3,3-dimethylazetidin-1-yl)acetamido)-2-methylpyridin-3-yl)-2-(4-methoxypyridin-3-yl)pyrazolo[5,1-b]thiazole-7-carboxamide], the pIC50 in assay [1] is 9.57; in assay [2], 8.77; in assay [3] (read-out: PDGFR Cellular IC50), 8.70.

In the case of `COCCn1cc(-c2cn3ncc(C(=O)Nc4cc(NC(=O)CCN5CCCC5(C)C)cnc4C)c3s2)cn1` [Example 41, N-(5-(3-(2,2-dimethylpyrrolidin-1-yl)propanamido)-2-methylpyridin-3-yl)-2-(1-(2-methoxyethyl)-1H-pyrazol-4-yl)pyrazolo[5,1-b]thiazole-7-carboxamide], the negative-log IC50 (pIC50) is 9.37 in assay [1], 8.33 in assay [2] and 8.00 in assay [3] (read-out: PDGFR Cellular IC50).

Consider `Cc1ncc(NC(=O)CN2CCC23CCC3)cc1NC(=O)c1cnn2cc(-c3cnn4c3OCCC4)sc12` [Example 408, N-(5-(2-(1-azaspiro[3.3]heptan-1-yl)acetamido)-2-methylpyridin-3-yl)-2-(6,7-dihydro-5H-pyrazolo[5,1-b][1,3]oxazin-3-yl)pyrazolo[5,1-b]thiazole-7-carboxamide], for which the results for the pIC50 in assay [1], in assay [2] and in assay [3] (read-out: PDGFR Cellular IC50) were 9.70, 8.74 and 8.77, respectively.

For `Cc1ncc(NC(=O)CN2CC(C)(C)C2)cc1NC(=O)c1cnn2cc(-c3cnn4c3CCC4)sc12` [Example 409, 2-(5,6-dihydro-4H-pyrrolo[1,2-b]pyrazol-3-yl)-N-(5-(2-(3,3-dimethylazetidin-1-yl)acetamido)-2-methylpyridin-3-yl)pyrazolo[5,1-b]thiazole-7-carboxamide], the results for the pIC50 in assay [1], in assay [2] and in assay [3] (read-out: PDGFR Cellular IC50) were 9.70, 8.89 and 8.80, respectively.

In the case of `Cc1ncc(NC(=O)CN2CC(C)(C)C2)cc1NC(=O)c1cnn2cc(-c3ccnnc3C)sc12` [Example 410, N-(5-(2-(3,3-dimethylazetidin-1-yl)acetamido)-2-methylpyridin-3-yl)-2-(3-methylpyridazin-4-yl)pyrazolo[5,1-b]thiazole-7-carboxamide], the pIC50 in assay [1] is 8.21; in assay [2], 6.72; in assay [3] (PDGFR Cellular IC50), 6.57.

On to `Cc1ncc(NC(=O)CN2CC3(COC3)C2)cc1NC(=O)c1cnn2cc(-c3cnn4c3OCCC4)sc12` [Example 411, N-(5-(2-(2-oxa-6-azaspiro[3.3]heptan-6-yl)acetamido)-2-methylpyridin-3-yl)-2-(6,7-dihydro-5H-pyrazolo[5,1-b][1,3]oxazin-3-yl)pyrazolo[5,1-b]thiazole-7-carboxamide], for which the pIC50 in assay [1] is 9.30; in assay [2], 8.18; in assay [3] (read-out: PDGFR Cellular IC50), 6.94.

Consider `Cc1ncc(NC(=O)CN2CCC2)cc1NC(=O)c1cnn2cc(-c3cnn4c3OCCC4)sc12` [Example 412, N-(5-(2-(azetidin-1-yl)acetamido)-2-methylpyridin-3-yl)-2-(6,7-dihydro-5H-pyrazolo[5,1-b][1,3]oxazin-3-yl)pyrazolo[5,1-b]thiazole-7-carboxamide], for which the figures for the pIC50 in assay [1], in assay [2] and in assay [3] (read-out: PDGFR Cellular IC50) were 8.85, 7.46 and 7.11, respectively.

For the molecule `Cc1ncc(NC(=O)CN2CCC[C@@H]2C)cc1NC(=O)c1cnn2cc(-c3cnn4c3OCCC4)sc12` [Example 413, (S)-2-(6,7-dihydro-5H-pyrazolo[5,1-b][1,3]oxazin-3-yl)-N-(2-methyl-5-(2-(2-methylpyrrolidin-1-yl)acetamido)pyridin-3-yl)pyrazolo[5,1-b]thiazole-7-carboxamide], the figures for the pIC50 in assay [1], in assay [2] and in assay [3] (read-out: PDGFR Cellular IC50) were 9.52, 8.54 and 8.47, respectively.

Take `Cc1ncc(NC(=O)CNCC(C)C)cc1NC(=O)c1cnn2cc(-c3cnn4c3OCCC4)sc12` [Example 414, 2-(6,7-dihydro-5H-pyrazolo[5,1-b][1,3]oxazin-3-yl)-N-(5-(2-(isobutylamino)acetamido)-2-methylpyridin-3-yl)pyrazolo[5,1-b]thiazole-7-carboxamide]: the pIC50 was 9.40 in assay [1], 8.48 in assay [2] and 8.21 in assay [3] (read-out: PDGFR Cellular IC50).

Turning to `Cc1ncc(NC(=O)CN2CC(C)(C)C2)cc1NC(=O)c1cnn2cc(-c3cnc4n3CCOC4)sc12` [Example 415, 2-(5,6-dihydro-8H-imidazo[2,1-c][1,4]oxazin-3-yl)-N-(5-(2-(3,3-dimethylazetidin-1-yl)acetamido)-2-methylpyridin-3-yl)pyrazolo[5,1-b]thiazole-7-carboxamide], the pIC50 in assay [1] is 9.30; in assay [2] it was 8.18; in assay [3] (read-out: PDGFR Cellular IC50), 7.38.

`Cc1ncc(NC(=O)CN2CCC[C@@H]2C)cc1NC(=O)c1cnn2cc(-c3cnn4c3CCC4)sc12` [Example 416, (S)-2-(5,6-dihydro-4H-pyrrolo[1,2-b]pyrazol-3-yl)-N-(2-methyl-5-(2-(2-methylpyrrolidin-1-yl)acetamido)pyridin-3-yl)pyrazolo[5,1-b]thiazole-7-carboxamide]: the figures for the pIC50 in assay [1], in assay [2] and in assay [3] (read-out: PDGFR Cellular IC50) were 9.70, 8.80 and 8.64, respectively.

As for `Cc1ncc(NC(=O)CN2CCCC23CCC3)cc1NC(=O)c1cnn2cc(-c3cnn4c3COCC4)sc12` [Example 417, N-(5-(2-(5-azaspiro[3.4]octan-5-yl)acetamido)-2-methylpyridin-3-yl)-2-(6,7-dihydro-4H-pyrazolo[5,1-c][1,4]oxazin-3-yl)pyrazolo[5,1-b]thiazole-7-carboxamide], the negative logarithm of the IC50 (pIC50) is 9.40 in assay [1], 8.55 in assay [2] and 8.59 in assay [3] (PDGFR Cellular IC50).

The values above are taken from patent US20240109917A1 (ACTELION PHARMACEUTICALS LTD, priority 2020, published 2024).
